Laboratory results published in patent US12139520B2 (priority 2020, dated 2024).
pEC50: −log10 of the molar value. Bridge positions count the residues as written; N and C are the ends. Square brackets hold non-standard residues; d marks the D form. Peptide text beside a SMILES is read from it. Hyp = O=C(O)[C@@H]1C[C@@H](O)CN1; Cit = NC(=O)NCCC[C@H](N)C(=O)O

Tests used:
[1] = Physical stability of peptide analogues (Thioflavin T fibrillation); type: physicochemical; conditions: maximum ThT signal normalized between hAMY maximum and buffer background; 40° C., shaking, four days; pH 7 per table title
Method in brief: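 1 h in 50 mM NaOAc pH 4 / 50 mM NaPi pH 7; + ThT 4 μM final; 40 °C, 700 rpm linear shake 5 min pre-read; ex 450, em 480 nm q10 min × 4 d; LOESS smoothing; max signal normalised to hAMY max vs buffer blank.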

[2] = molecular target: T1, hAMY3 receptor (Homo sapiens, UniProt O60896+P30988); test: cAMP assay for in vitro receptor activation, hAMY3-R; type: cell-based; conditions: cAMP assay, hAMY3 receptor; read-out: hAMY3R EC50
T1 sequence (P30988 25-474): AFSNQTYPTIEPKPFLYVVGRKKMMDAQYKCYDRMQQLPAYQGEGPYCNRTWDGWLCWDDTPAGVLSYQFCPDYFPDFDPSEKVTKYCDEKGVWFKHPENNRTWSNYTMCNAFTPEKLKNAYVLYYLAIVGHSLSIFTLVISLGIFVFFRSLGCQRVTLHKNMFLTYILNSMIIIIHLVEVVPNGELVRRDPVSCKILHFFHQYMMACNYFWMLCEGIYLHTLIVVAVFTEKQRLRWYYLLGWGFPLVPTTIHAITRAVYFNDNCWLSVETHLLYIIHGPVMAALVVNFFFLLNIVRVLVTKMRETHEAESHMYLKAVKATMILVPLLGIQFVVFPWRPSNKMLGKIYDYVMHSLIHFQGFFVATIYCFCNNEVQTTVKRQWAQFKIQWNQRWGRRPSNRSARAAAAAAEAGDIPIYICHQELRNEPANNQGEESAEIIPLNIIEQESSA
T1 sequence (O60896 24-148 partner): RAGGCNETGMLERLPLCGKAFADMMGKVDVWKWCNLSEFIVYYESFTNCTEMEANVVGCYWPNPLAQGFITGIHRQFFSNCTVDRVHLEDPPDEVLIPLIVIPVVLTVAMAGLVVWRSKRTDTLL
Method in brief: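 Monoclonal cell line stably overexpressing hAMY3 receptor, plated in DPBS with 0.05% casein and 0.5 mM IBMX, was stimulated with graded compound doses for 30 min at room temperature. cAMP accumulation was read by time-resolved FRET one hour after adding detection reagents.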

[3] = molecular target: hAM1 receptor (Homo sapiens, UniProt O60895+Q16602); test: cAMP assay for in vitro receptor activation, hAM1-R; type: cell-based; conditions: cAMP assay, hAM1 receptor; read-out: hAM1R EC50
Chain of hAM1 receptor (Q16602 23-461): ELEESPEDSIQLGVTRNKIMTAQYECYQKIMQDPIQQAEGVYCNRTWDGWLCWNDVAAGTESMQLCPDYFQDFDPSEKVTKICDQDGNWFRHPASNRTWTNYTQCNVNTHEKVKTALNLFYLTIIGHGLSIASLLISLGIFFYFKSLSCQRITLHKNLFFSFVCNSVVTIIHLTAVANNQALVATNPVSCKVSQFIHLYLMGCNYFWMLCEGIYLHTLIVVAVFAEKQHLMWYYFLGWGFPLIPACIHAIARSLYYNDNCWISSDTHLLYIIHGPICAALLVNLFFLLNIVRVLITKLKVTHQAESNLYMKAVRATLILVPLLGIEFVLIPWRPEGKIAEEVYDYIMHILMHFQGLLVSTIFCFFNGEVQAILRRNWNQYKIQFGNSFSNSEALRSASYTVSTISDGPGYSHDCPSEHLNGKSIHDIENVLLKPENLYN
Chain of hAM1 receptor (O60895 43-175 partner): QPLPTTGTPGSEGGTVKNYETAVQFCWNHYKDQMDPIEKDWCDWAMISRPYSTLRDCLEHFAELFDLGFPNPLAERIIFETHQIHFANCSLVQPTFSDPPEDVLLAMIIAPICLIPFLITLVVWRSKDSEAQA
Method in brief: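 Receptor activation, read as cAMP, was assessed in thawed cells of a monoclonal hAM1-overexpressing stable line, plated at 8000 cells/well in DPBS supplemented with 0.05% casein and 0.5 mM IBMX.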

Row | Max ThT signal (%) [1] [%] | pEC50 [2] | pEC50 [3] | Compound
1 | 1.200 | 10.07 | < 5.30 | CC[C@H](C)[C@H](NC(=O)[C@H](CCC(N)=O)NC(=O)[C@H](Cc1c[nH]cn1)NC(=O)[C@H](C)NC(=O)[C@H](CC(C)C)NC(=O)[C@H](Cc1c[nH]c2ccccc12)NC(=O)[C@H](CCC(N)=O)NC(=O)[C@@H](NC(=O)[C@@H](NC(=O)[C@@H]1CSSC[C@H](NC(=O)CN)C(=O)N[C@@H](CCCNC(=N)N)C(=O)N[C@@H]([C@@H](C)O)C(=O)NCC(=O)N[C@@H]([C@@H](C)O)C(=O)N1)[C@@H](C)O)C(C)C)C(=O)N[C@@H](Cc1ccc(O)cc1)C(=O)N[C@@H](CCC(N)=O)C(=O)N[C@@H](Cc1ccccc1)C(=O)N[C@H](C(=O)N[C@@H](CC(=O)O)C(=O)N[C@@H](CCCCN)C(=O)N[C@@H](CC(=O)O)C(=O)N[C@@H](CCCCN)C(=O)N[C@@H](CC(=O)O)C(=O)N[C@@H](CC(N)=O)C(=O)N[C@H](C(=O)N[C@@H](C)C(=O)N1CCC[C@H]1C(=O)N[C@@H](CCCNC(=N)N)C(=O)N[C@@H](CO)C(=O)N[C@@H](CC(N)=O)C(=O)N[C@H](C(=O)NCC(=O)N1CCC[C@H]1C(=O)N[C@@H](CCC(N)=O)C(=O)NCC(=O)N[C@@H](Cc1ccc(O)cc1)C(N)=O)C(C)C)C(C)C)[C@@H](C)O [compound 346] (H-GCRTGTCTVQWLAHQIYQFTDKDKDNVAPRSNVGPQGY-NH2; disulfide 2-7; N-terminus assumed)
2 | 19.800 | 10.27 | < 5.30 | CC[C@H](C)[C@H](NC(=O)[C@H](CCC(N)=O)NC(=O)[C@H](Cc1c[nH]cn1)NC(=O)[C@H](C)NC(=O)[C@H](CC(C)C)NC(=O)[C@H](Cc1c[nH]c2ccccc12)NC(=O)[C@H](CCC(N)=O)NC(=O)[C@@H](NC(=O)[C@@H](NC(=O)[C@@H]1CSSC[C@H](NC(=O)CN)C(=O)N[C@@H](CCCNC(=N)N)C(=O)N[C@@H]([C@@H](C)O)C(=O)NCC(=O)N[C@@H]([C@@H](C)O)C(=O)N1)[C@@H](C)O)C(C)C)C(=O)N[C@@H](Cc1ccc(O)cc1)C(=O)N[C@@H](CCC(N)=O)C(=O)N[C@@H](Cc1ccccc1)C(=O)N[C@H](C(=O)N[C@@H](CC(=O)O)C(=O)N[C@@H](CCCCN)C(=O)N[C@@H](CC(=O)O)C(=O)N[C@@H](CCCCN)C(=O)N[C@@H](CC(=O)O)C(=O)N[C@@H](CC(N)=O)C(=O)N[C@H](C(=O)N[C@@H](C)C(=O)N1CCC[C@H]1C(=O)N[C@@H](CCCNC(=N)N)C(=O)N[C@@H](CO)C(=O)N[C@@H](CC(N)=O)C(=O)N[C@H](C(=O)NCC(=O)N1CCC[C@H]1C(=O)N[C@@H](CCC(N)=O)C(=O)NCC(=O)N1C[C@H](O)C[C@H]1C(N)=O)C(C)C)C(C)C)[C@@H](C)O [compound 342] (H-GCRTGTCTVQWLAHQIYQFTDKDKDNVAPRSNVGPQG[Hyp]-NH2; disulfide 2-7)

More lines, now with the values behind:

Row | Compound | Max ThT signal (%) [1] [%] | pEC50 [2] | pEC50 [3]
3 | CC[C@H](C)[C@H](NC(=O)[C@H](CCC(N)=O)NC(=O)[C@H](Cc1c[nH]cn1)NC(=O)[C@H](C)NC(=O)[C@H](CC(C)C)NC(=O)[C@H](CCCNC(=N)N)NC(=O)[C@H](CCC(N)=O)NC(=O)[C@@H](NC(=O)[C@@H](NC(=O)[C@@H]1CSSC[C@H](NC(=O)[C@@H](N)CCCCN)C(=O)N[C@@H](CC(N)=O)C(=O)N[C@@H]([C@@H](C)O)C(=O)N[C@@H](C)C(=O)N[C@@H]([C@@H](C)O)C(=O)N1)[C@@H](C)O)C(C)C)C(=O)N[C@@H](Cc1ccc(O)cc1)C(=O)N[C@@H](CCC(N)=O)C(=O)N[C@@H](Cc1ccccc1)C(=O)N[C@H](C(=O)N[C@@H](CC(=O)O)C(=O)N[C@@H](CCCCN)C(=O)N[C@@H](CC(=O)O)C(=O)N[C@@H](CCCCN)C(=O)N[C@@H](CC(=O)O)C(=O)N[C@@H](C)C(=O)N[C@H](C(=O)N[C@@H](C)C(=O)N1CCC[C@H]1C(=O)N1CCC[C@H]1C(=O)N[C@H](C(=O)N[C@@H](CC(N)=O)C(=O)N[C@H](C(=O)NCC(=O)N[C@@H](CO)C(=O)N[C@@H](CC(N)=O)C(=O)NCC(=O)N1C[C@H](O)C[C@H]1C(N)=O)C(C)C)[C@@H](C)O)C(C)C)[C@@H](C)O [compound 52] (H-KCNTATCTVQRLAHQIYQFTDKDKDAVAPPTNVGSNG[Hyp]-NH2; disulfide 2-7; N-terminus assumed) | 7.600 | 10.96 | < 5.30
4 | CC[C@H](C)[C@H](NC(=O)[C@H](CCC(N)=O)NC(=O)[C@H](Cc1c[nH]cn1)NC(=O)[C@H](C)NC(=O)[C@H](CC(C)C)NC(=O)[C@H](CCCNC(=N)N)NC(=O)[C@H](CCC(N)=O)NC(=O)[C@@H](NC(=O)[C@@H](NC(=O)[C@@H]1CSSC[C@H](NC(=O)[C@@H](N)CCCCN)C(=O)N[C@@H](CC(N)=O)C(=O)N[C@@H]([C@@H](C)O)C(=O)N[C@@H](C)C(=O)N[C@@H]([C@@H](C)O)C(=O)N1)[C@@H](C)O)C(C)C)C(=O)N[C@@H](Cc1ccc(O)cc1)C(=O)N[C@@H](C)C(=O)N[C@@H](Cc1ccccc1)C(=O)N[C@H](C(=O)N[C@@H](CC(=O)O)C(=O)N[C@@H](CCCCN)C(=O)N[C@@H](CC(=O)O)C(=O)N[C@@H](CCCCN)C(=O)N[C@@H](CC(=O)O)C(=O)N[C@@H](CC(N)=O)C(=O)N[C@H](C(=O)N[C@@H](C)C(=O)N1CCC[C@H]1C(=O)N1CCC[C@H]1C(=O)N[C@H](C(=O)N[C@@H](CC(N)=O)C(=O)N[C@H](C(=O)NCC(=O)N[C@@H](CO)C(=O)N[C@@H](CC(N)=O)C(=O)NCC(=O)N1C[C@H](O)C[C@H]1C(N)=O)C(C)C)[C@@H](C)O)C(C)C)[C@@H](C)O [compound 42] (H-KCNTATCTVQRLAHQIYAFTDKDKDNVAPPTNVGSNG[Hyp]-NH2; disulfide 2-7; N-terminus assumed) | 6.300 | 11.00 | < 5.30
5 | CC[C@H](C)[C@H](NC(=O)[C@H](CCC(N)=O)NC(=O)[C@H](Cc1c[nH]cn1)NC(=O)[C@H](C)NC(=O)[C@H](CC(C)C)NC(=O)[C@H](CCCNC(N)=O)NC(=O)[C@H](CCC(N)=O)NC(=O)[C@@H](NC(=O)[C@@H](NC(=O)[C@@H]1CSSC[C@H](NC(=O)[C@@H](N)CCCCN)C(=O)N[C@@H](CC(N)=O)C(=O)N[C@@H]([C@@H](C)O)C(=O)N[C@@H](C)C(=O)N[C@@H]([C@@H](C)O)C(=O)N1)[C@@H](C)O)C(C)C)C(=O)N[C@@H](Cc1ccc(O)cc1)C(=O)N[C@@H](CCC(N)=O)C(=O)N[C@@H](Cc1ccccc1)C(=O)N[C@H](C(=O)N[C@@H](CC(=O)O)C(=O)N[C@@H](CCCCN)C(=O)N[C@@H](CC(=O)O)C(=O)N[C@@H](CCCCN)C(=O)N[C@@H](CC(=O)O)C(=O)N[C@@H](CC(N)=O)C(=O)N[C@H](C(=O)N[C@@H](C)C(=O)N1CCC[C@H]1C(=O)N[C@@H](C)C(=O)N[C@H](C(=O)N[C@@H](CC(N)=O)C(=O)N[C@H](C(=O)NCC(=O)N[C@@H](CO)C(=O)N[C@@H](CC(N)=O)C(=O)NCC(=O)N1C[C@H](O)C[C@H]1C(N)=O)C(C)C)[C@@H](C)O)C(C)C)[C@@H](C)O [compound 252] (H-KCNTATCTVQ[Cit]LAHQIYQFTDKDKDNVAPATNVGSNG[Hyp]-NH2; disulfide 2-7; N-terminus assumed) | 27.550 | 11.22 | < 5.30
6 | CC[C@H](C)[C@H](NC(=O)[C@H](C)NC(=O)[C@H](Cc1c[nH]cn1)NC(=O)[C@H](C)NC(=O)[C@H](CC(C)C)NC(=O)[C@H](CCCNC(=N)N)NC(=O)[C@H](CCC(N)=O)NC(=O)[C@@H](NC(=O)[C@@H](NC(=O)[C@@H]1CSSC[C@H](NC(=O)[C@@H](N)CCCCN)C(=O)N[C@@H](CC(N)=O)C(=O)N[C@@H]([C@@H](C)O)C(=O)N[C@@H](C)C(=O)N[C@@H]([C@@H](C)O)C(=O)N1)[C@@H](C)O)C(C)C)C(=O)N[C@@H](Cc1ccc(O)cc1)C(=O)N[C@@H](CCC(N)=O)C(=O)N[C@@H](Cc1ccccc1)C(=O)N[C@H](C(=O)N[C@@H](CC(=O)O)C(=O)N[C@@H](CCCCN)C(=O)N[C@@H](CC(=O)O)C(=O)N[C@@H](CCCCN)C(=O)N[C@@H](CC(=O)O)C(=O)N[C@@H](CC(N)=O)C(=O)N[C@H](C(=O)N[C@@H](C)C(=O)N1CCC[C@H]1C(=O)N1CCC[C@H]1C(=O)N[C@H](C(=O)N[C@@H](CC(N)=O)C(=O)N[C@H](C(=O)NCC(=O)N[C@@H](CO)C(=O)N[C@@H](CC(N)=O)C(=O)NCC(=O)N1C[C@H](O)C[C@H]1C(N)=O)C(C)C)[C@@H](C)O)C(C)C)[C@@H](C)O [compound 13] (H-KCNTATCTVQRLAHAIYQFTDKDKDNVAPPTNVGSNG[Hyp]-NH2; disulfide 2-7; N-terminus assumed) | 5.000 | 11.15 | < 5.30
